Laboratory results from US20220267854A1, “EGFR AND ROS1 KINASE IN CANCER” (CELL SIGNALING TECHNOLOGY, INC., priority 2012, published 2022).

Columns and labels:
[1] = tested on: BaF3 cells transduced with FLT3/ITD
Description: (§1) BaF3 and Karpas 299 cells were obtained from DSMZ (Deutsche Sammlung von Mikroorganismen und Zellkulturen GmbH, Germany). BaF3 cells, which need interleukin-3 to survive, were maintained at 37° C. in RPMI-1640 medium (Invitrogen) with 10% fetal bovine serum (FBS) (Sigma) and 1.0 ng/ml murine IL-3 (R&D Systems). Karpas 299 cells (a lymphoma cell line) were grown in RPMI-1640 with 10% FBS.
(§2) BaF3 cells were transduced with retrovirus encoding FIG-ROS1(S), FIG-ROS1(L), or FLT-31TD (the Internal tandem duplication mutation in FLT3 causes AML leukemia), and selected for IL3 independent growth. Karpas 299 cells, which express NPM-ALK, was used as a positive control. Retroviruses were generated as previously described (see PCT Publication No. WO 2010/093928, incorporated by reference).
(§3) A MTS assay was performed using the CellTiter 96 Aqueous One Solution Reagent (Promega, Catalog No G3582). […] After 72 hours, 20 μl of the CellTiter 96 Aqueous One Solution Reagent was added into each well of a 96 well assay plate (flat bottom), and then 100 μl of cells grown with or without treatment. Media-only wells were used as controls. The 96 well plate was incubated for 1-4 hours at 37° C., and then viable cells were counted by reading the absorbance at 490 nm using a 96 well plate reader.

[2] = tested on: Karpas 299 cells (express NPM-ALK); details: FIG. 6, 0-1000 nM, 72 hours
Description: as §1, §2, §3

[3] = tested on: Karpas 299 cells; assay: Cleaved caspase-3 flow cytometry (apoptosis), Karpas 299; assay type: cell-based; details: FIG. 7
Excerpt: (§4) The mechanism of death of the BaF3 and Karpas 299 cells was next assessed by measuring the percentage of cleaved-caspase 3 positive cells by flow cytometry assay using cleaved caspase-3 as a marker for apoptosis.

[4] = tested on: STAT3, AKT, ERK, Shp2 in BaF3 cells transduced with the FLT-3ITD retrovirus; assay type: cell-based; details: FLT-3ITD BaF3
Excerpt: (§5) All antibodies were from Cell Signaling Technology, Inc. (Danvers, Mass.)
(§6) Since ROS1, ALK, LTK, InsR, and IGFIR belong to the same family of tyrosine kinases, they may share similar structure in the kinase domain.

[5] = biological target: T1, FIG-ROS1(S) (Homo sapiens, UniProt P08922); assay: Western blotting, phosphorylation of FIG-ROS1(S) in BaF3 cells; assay type: cell-based
T1 construct: expressed in transfected cells; host or cells: BaF3 cells (retroviral transduction, selected for IL3-independent growth)
Excerpt: as §5, §6

[6] = tested on: BaF3 cells expressing FIG-ROS1(L); assay: Cleaved caspase-3 flow cytometry (apoptosis), BaF3 FIG-ROS1(L); assay type: cell-based; details: FIG. 7
Excerpt: as §4

[7] = tested on: BaF3 cells expressing myc-tagged neomycin (Neo-Myc); assay: MTS cell growth assay, BaF3 expressing myc-tagged neomycin; assay type: cell-based; details: FIGS. 9A/9B; 0-1.0 uM; negative control BaF3 neo-myc
Description: as §1, §3

[8] = biological target: FIG-ROS1(L) (Homo sapiens, UniProt P08922); assay: Western blotting, phosphorylation of FIG-ROS1(L) in BaF3 cells; assay type: cell-based
Excerpt: as §5, §6

[9] = tested on: BaF3 cells expressing FIG-ROS1(S); assay: MTS cell growth assay, BaF3 expressing FIG-ROS1(S); assay type: cell-based
Description: as §1, §2, §3

[10] = tested on: STAT3, AKT, ERK, Shp2 in FIG-ROS1(S) expressing BaF3 cells; assay: Western blotting, downstream signaling molecules in FIG-ROS1(S) expressing BaF3 cells; assay type: cell-based
Excerpt: as §5, §6

[11] = tested on: BaF3 cells expressing FIG-ROS1(S); assay: Cleaved caspase-3 flow cytometry (apoptosis), BaF3 FIG-ROS1(S); assay type: cell-based; details: FIG. 7
Excerpt: as §4

[12] = tested on: BaF3 cells expressing FIG-ROS1(L); assay: MTS cell growth assay, BaF3 expressing FIG-ROS1(L); assay type: cell-based
Description: as §1, §2, §3

[13] = tested on: STAT3, AKT, ERK, Shp2 in FIG-ROS1(L) expressing BaF3 cells; assay: Western blotting, downstream signaling molecules in FIG-ROS1(L) expressing BaF3 cells; assay type: cell-based
Excerpt: as §5, §6

[14] = FIG. 8, 0, 10, 50, or 100 nM for three hours
[15] = FIGS. 9A/9B, 0-1.0 uM, same concentration of each
[16] = FIG. 10, 0, 0.1, 0.3, or 1.0 uM for three hours

## COc1cc(N2CCC(N3CCN(C)CC3)CC2)ccc1Nc1ncc(Cl)c(Nc2ccccc2S(=O)(=O)C(C)C)n1 [TAE-684]
[1]; FIG. 6, 0-1000 nM, 72 hours, BaF3 FLT3/ITD
  cellular growth response: not susceptible
[1]; FIGS. 9A/9B, 0-1.0 uM, negative control BaF3 FLT3-ITD
  cellular growth response, compared with FIG-ROS1 BaF3 and Karpas 299 cells: less sensitive
[2]
  cellular growth response: stopped growing
[3]
  mechanism of death, cleaved-caspase 3 positive cells: did not die by apoptosis
[4]; [14]
  phosphorylation of STAT3, AKT, and ERK, and Shp2: not affected
[5]; [14]
  phosphorylation of FIG-ROS1(S): inhibited
[6]
  mechanism of death, cleaved-caspase 3 positive cells: die by apoptosis
[7]
  cellular growth response, compared with FIG-ROS1 BaF3 and Karpas 299 cells: less sensitive
[8]; [14]
  phosphorylation of FIG-ROS1(L): inhibited
[9]; FIG. 6, 0-1000 nM, 72 hours
  cellular growth response: stopped growing
[9]; [15]
  cellular growth response, TAE-684 compared with crizotinib: more sensitive to TAE-684 than to crizotinib
[10]; [14]
  phosphorylation of STAT3, AKT, and ERK, and Shp2: inhibited
[11]
  mechanism of death, cleaved-caspase 3 positive cells: die by apoptosis
[12]; FIG. 6, 0-1000 nM, 72 hours
  cellular growth response: stopped growing
[12]; [15]
  cellular growth response, TAE-684 compared with crizotinib: more sensitive to TAE-684 than to crizotinib
[13]; [14]
  phosphorylation of STAT3, AKT, and ERK, and Shp2: inhibited

## C[C@@H](Oc1cc(-c2cnn(C3CCNCC3)c2)cnc1N)c1c(Cl)ccc(F)c1Cl [crizotinib]
[4]; [16]
  phosphorylation of STAT3 and ERK: not affected
[5]; [16]
  phosphorylation of FIG-ROS1(S): inhibited
[8]; [16]
  phosphorylation of FIG-ROS1(L): inhibited
[10]; [16]
  phosphorylation of STAT3 and ERK: inhibited
[13]; [16]
  phosphorylation of STAT3 and ERK: inhibited
